# Test results from paper PMC8746953, “Caseinolytic Proteins (Clp) in the Genus Klebsiella: Special Focus on ClpK” (Molecules, 2021).
# Molecular target: T1, ClpK (Klebsiella pneumoniae, UniProt E0W6V3)
# T1 construct: full-length codon-optimised gene in pColdI (BamH1/SalH1), His-tagged, expressed in E. coli BL21; oligomer not measured
# Assay: fluorescence emission of mant-nucleotide (excitation […] nm)
# Format: binding
# Settings: 2 uM ClpK, 10 uM mant-ATP; 10 mM sodium phosphate pH 7.4, 20 °C; labelled compound
# T1 sequence (E0W6V3 entry or part of it): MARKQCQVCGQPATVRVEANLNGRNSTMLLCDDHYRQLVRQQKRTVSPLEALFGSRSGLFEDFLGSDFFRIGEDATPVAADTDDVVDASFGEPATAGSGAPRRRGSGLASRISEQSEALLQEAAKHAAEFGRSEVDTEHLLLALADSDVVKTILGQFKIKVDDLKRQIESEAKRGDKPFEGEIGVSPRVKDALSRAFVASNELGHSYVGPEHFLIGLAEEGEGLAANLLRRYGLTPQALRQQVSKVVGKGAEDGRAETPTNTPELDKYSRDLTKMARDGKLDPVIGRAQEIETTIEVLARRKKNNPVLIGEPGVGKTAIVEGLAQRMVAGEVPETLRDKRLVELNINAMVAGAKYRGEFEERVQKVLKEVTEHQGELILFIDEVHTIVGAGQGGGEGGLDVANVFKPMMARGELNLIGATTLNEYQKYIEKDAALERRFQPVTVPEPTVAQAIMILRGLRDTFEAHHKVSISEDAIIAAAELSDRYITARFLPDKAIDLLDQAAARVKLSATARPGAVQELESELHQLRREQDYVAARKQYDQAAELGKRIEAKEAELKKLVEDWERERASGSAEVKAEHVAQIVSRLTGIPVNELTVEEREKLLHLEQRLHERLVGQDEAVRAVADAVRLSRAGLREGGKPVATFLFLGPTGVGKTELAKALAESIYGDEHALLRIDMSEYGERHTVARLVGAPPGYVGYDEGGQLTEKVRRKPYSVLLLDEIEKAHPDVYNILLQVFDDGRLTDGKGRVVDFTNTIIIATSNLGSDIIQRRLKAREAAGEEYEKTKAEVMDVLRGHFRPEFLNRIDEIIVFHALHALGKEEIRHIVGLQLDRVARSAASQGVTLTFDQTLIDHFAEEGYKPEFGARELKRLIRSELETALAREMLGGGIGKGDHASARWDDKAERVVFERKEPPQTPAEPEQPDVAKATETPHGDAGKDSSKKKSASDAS
compound,measurement,value
CNc1ccccc1C(=O)O[C@H]1[C@@H](O)[C@H](n2cnc3c(N)ncnc32)O[C@@H]1COP(=O)(O)OP(=O)(O)OP(=O)(O)O [mant-ATP],fluorescence emission of mant-nucleotide (excitation 355 nm),The spectrum indicates binding of mant-ATP as indicated by an increase in the fluorescence quantum yield
